What was measured:
PI3Kα [1] = target: T1, PI3Kα (Homo sapiens, UniProt P42336); assay: Biochemical assay of PI3K potency and selectivity using 20 μM ATP, Alpha; conditions: for Alpha/Delta Ratio / IC50: 20 μM ATP; for Alpha/Delta Ratio: ratio of IC50 values, > = hypothetical ratio with 100 μM substituted for the missing IC50; for IC50: read-out: Alpha IC50; for remaining activity at 100 µM: read-out: percent activity remaining at 100 μM, 20 μM ATP, 100 μM compound did not inhibit by at least 50%
T1 construct: His tag (pFastbac HTb vector) (N); FLAG; made in house; host or cells: Sf21 insect cells (baculovirus)
T1 sequence (P42336 whole entry): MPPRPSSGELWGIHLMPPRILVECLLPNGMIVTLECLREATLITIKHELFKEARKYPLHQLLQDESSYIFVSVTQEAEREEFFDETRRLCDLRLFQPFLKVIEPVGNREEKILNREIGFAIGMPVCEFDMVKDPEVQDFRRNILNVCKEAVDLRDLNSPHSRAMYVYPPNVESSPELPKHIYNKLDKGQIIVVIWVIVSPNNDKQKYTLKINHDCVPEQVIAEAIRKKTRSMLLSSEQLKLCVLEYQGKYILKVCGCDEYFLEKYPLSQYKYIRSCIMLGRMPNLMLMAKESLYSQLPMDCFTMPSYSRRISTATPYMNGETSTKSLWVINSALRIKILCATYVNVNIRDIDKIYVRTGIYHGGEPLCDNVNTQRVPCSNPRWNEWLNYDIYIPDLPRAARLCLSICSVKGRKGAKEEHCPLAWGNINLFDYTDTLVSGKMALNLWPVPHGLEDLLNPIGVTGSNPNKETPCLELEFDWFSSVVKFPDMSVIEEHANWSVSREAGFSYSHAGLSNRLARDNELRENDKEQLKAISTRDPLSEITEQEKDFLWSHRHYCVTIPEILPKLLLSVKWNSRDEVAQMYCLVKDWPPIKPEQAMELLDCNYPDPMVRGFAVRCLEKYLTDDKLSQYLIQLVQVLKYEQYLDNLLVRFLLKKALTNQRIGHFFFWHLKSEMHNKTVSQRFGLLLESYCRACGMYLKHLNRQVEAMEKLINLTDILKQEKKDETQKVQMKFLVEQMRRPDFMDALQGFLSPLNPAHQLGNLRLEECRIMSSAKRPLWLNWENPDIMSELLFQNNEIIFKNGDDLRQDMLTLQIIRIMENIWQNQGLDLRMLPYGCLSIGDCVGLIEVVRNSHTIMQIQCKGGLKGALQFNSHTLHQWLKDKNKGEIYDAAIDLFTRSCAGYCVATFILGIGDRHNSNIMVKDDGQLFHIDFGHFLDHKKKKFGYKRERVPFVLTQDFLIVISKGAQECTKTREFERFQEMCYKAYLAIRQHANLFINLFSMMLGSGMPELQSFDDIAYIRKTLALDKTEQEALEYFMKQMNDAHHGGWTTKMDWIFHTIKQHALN
T1 sequence (P27986 whole entry partner): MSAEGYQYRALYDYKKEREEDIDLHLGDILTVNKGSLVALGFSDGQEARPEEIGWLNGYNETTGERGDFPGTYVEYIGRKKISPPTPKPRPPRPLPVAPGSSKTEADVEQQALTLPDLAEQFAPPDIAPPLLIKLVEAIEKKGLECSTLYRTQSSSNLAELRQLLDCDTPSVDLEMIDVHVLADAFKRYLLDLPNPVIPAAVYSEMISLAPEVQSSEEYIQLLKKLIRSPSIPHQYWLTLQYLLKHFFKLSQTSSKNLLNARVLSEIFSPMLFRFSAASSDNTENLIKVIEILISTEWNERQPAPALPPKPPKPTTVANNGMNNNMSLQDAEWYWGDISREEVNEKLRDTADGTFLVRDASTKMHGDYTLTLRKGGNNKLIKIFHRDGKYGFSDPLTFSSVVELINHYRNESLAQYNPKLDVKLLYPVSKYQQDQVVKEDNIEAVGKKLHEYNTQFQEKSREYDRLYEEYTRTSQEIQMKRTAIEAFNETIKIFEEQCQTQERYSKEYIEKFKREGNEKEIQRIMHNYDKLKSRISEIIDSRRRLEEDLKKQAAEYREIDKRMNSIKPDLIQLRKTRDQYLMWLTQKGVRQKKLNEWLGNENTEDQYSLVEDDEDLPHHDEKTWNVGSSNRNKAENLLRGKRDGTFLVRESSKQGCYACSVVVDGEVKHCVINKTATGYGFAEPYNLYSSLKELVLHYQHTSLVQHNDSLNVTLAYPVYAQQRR
Excerpt: (§1) Recombinant PI3K heterodimeric complexes consisting of a p110 catalytic subunit and a p85 regulatory subunit were overexpressed using the BAC-TO-BAC® HT baculovirus expression system (GIBCO/BRL), and then purified for use in biochemical assays. The four Class I PI 3-kinases were cloned into baculovirus vectors as follows: […]

PI3Kβ [2] = target: T2, PI3Kβ (Homo sapiens, UniProt P42338); assay: Biochemical assay of PI3K potency and selectivity using 20 μM ATP, Beta; conditions: 20 μM ATP; for Beta/Delta Ratio: ratio of IC50 values, > = hypothetical ratio with 100 μM substituted for the missing IC50; for IC50: read-out: Beta IC50; for remaining activity at 100 µM: read-out: Beta: percent activity remaining at 100 μM, 100 μM compound did not inhibit by at least 50%
T2 construct: His tag (pFastbac HTa vector) (N); FLAG (N); made in house; host or cells: Sf21 insect cells (baculovirus)
T2 sequence (P42338 whole entry): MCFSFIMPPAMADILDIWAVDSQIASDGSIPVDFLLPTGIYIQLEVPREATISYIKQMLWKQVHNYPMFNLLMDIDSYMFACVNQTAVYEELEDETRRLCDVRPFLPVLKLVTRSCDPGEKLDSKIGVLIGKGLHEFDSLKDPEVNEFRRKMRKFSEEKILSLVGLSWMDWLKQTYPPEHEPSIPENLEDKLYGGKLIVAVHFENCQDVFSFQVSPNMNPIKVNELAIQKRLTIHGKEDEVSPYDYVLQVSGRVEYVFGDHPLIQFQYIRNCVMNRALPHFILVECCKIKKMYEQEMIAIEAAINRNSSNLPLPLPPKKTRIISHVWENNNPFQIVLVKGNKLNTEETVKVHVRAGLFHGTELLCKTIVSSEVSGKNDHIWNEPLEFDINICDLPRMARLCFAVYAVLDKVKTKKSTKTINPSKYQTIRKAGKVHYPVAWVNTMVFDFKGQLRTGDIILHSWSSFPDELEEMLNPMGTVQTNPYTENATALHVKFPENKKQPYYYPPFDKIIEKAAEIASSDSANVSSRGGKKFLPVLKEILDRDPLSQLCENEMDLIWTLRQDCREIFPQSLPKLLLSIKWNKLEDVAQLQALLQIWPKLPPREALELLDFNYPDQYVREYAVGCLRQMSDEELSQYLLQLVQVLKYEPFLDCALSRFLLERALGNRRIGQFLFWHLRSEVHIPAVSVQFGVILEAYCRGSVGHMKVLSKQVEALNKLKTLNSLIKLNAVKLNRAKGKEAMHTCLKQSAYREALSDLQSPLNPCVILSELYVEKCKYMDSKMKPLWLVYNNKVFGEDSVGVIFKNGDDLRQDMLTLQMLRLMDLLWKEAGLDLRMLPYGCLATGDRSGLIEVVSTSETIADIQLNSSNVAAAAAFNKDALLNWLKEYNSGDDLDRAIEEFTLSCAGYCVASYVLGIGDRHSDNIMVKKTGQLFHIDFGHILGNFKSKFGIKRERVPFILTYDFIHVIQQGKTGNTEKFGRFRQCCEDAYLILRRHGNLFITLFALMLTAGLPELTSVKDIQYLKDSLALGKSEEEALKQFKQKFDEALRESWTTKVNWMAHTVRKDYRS
T2 sequence (P27986 whole entry partner): as the sequence (P27986 whole entry partner) above
Description: Recombinant PI3K heterodimeric complexes consisting of a p110 catalytic subunit and a p85 regulatory subunit were overexpressed using the BAC-TO-BAC® HT baculovirus expression system (GIBCO/BRL), and then purified for use in biochemical assays. The four Class I PI 3-kinases were cloned into baculovirus vectors as follows:
The 3× substrate for the HTS contained 0.6 mM Na2ATP, 0.10 mCi/mL γ-[^32P]ATP (NEN, Pittsburgh, Pa.), 6 μM PIP2/PS liposomes (Avanti Polar Lipids, Inc., […].), in 20 mM HEPES, pH 7.4.

PI3Kα [3] = target: T1, PI3Kα; assay: Biochemical assay using 200 μM ATP, Alpha
PI3Kβ [4] = target: T2, PI3Kβ; assay: Biochemical assay using 200 μM ATP, Beta
PI3Kγ = target: T3, PI3Kγ (Homo sapiens, UniProt P48736); assay: Biochemical assay using 200 μM ATP, Gamma
T3 construct: His tag (pFastbac HTb vector) (N); FLAG (N); made in house; host or cells: Sf21 insect cells (baculovirus)
T3 sequence (P48736 whole entry): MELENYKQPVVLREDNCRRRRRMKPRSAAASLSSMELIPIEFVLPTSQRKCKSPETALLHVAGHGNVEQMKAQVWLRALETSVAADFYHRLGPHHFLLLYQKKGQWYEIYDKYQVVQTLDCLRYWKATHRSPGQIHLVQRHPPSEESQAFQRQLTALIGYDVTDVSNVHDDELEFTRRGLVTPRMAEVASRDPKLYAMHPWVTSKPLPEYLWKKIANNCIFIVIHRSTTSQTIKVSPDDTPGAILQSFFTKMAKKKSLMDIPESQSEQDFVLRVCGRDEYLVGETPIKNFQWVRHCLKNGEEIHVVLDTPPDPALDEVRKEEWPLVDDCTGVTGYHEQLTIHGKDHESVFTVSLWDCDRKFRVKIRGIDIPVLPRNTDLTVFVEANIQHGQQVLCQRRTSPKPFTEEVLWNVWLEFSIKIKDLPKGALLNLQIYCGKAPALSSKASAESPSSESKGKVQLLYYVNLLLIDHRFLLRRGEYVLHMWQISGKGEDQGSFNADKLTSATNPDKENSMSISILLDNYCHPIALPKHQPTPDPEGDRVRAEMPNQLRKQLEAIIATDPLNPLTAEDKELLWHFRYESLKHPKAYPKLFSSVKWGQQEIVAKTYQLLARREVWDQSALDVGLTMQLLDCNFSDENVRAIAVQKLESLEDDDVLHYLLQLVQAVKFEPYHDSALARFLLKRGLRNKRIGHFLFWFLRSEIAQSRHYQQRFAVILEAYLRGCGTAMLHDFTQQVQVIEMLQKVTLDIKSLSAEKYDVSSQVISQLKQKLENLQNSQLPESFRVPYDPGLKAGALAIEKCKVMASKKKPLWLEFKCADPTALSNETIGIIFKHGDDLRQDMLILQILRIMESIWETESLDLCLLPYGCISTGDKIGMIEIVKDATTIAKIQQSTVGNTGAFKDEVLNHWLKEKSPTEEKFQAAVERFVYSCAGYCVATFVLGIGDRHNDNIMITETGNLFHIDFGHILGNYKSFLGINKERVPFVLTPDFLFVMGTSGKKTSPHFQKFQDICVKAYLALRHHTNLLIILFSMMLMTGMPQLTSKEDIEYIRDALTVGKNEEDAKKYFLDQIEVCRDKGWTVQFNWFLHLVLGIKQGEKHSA
Description: (§3) PI3Kδ catalyzes a phosphotransfer from γ-[^32P]ATP to PIP2/PS liposomes at the D3′ position of the PIP2 lipid inositol ring. This reaction is MgCl2 dependent and is quenched in high molarity potassium phosphate buffer pH 8.0 containing 30 mM EDTA. […] The reaction products (and all unlabelled products) are transferred to a 96-well, prewetted PVDF filter plate, filtered, and washed in high molarity potassium phosphate. Scintillant is added to the dried wells and the incorporated radioactivity is quantitated.
(§4) This dilution established a final concentration of 200 μM ATP in the reaction volume. The reaction was stopped with 150 μL quench buffer (1.0 M potassium phosphate pH 8.0, 30 mM EDTA). A portion of the quenched solution (180 μL) was then transferred to a PVDF filter plate (Millipore # MAIP NOB prewetted with sequential 200 μL washes of 100% methanol, water, and finally 1.0 M potassium phosphate pH 8.0 wash buffer).
(§5) The PVDF filter plate was aspirated under moderate vacuum (2-5 mm Hg), washed with 5×200 μL of wash buffer, and then dried by aspiration. The filter was subsequently blotted, allowed to air dry completely, and inserted into a Wallac counting cassette with 50 μL of Ecoscint scintillation cocktail added per well.
(§6) Subsequent selectivity assays were done similarly using the same 3× substrate stocks except they contained 0.05 mCi/mL γ[^32P]ATP and 3 mM PIP2. Subsequent selectivity assays also used the same 3× enzyme stocks, except they now contained 3 nM of any given PI3K isoform.
(§7) For all selectivity assays, the test compounds were weighed out and dissolved into 10-50 mM stocks in 100% DMSO (depending on their respective solubilities) and stored at −20° C. […] From these dilutions, 20 μL was added into the assay wells alongside water blanks used for the enzyme (positive) control and the no enzyme (background) control.
(§8) This selectivity protocol is identical to that described above, except the 3× stock ATP concentration was 600 μM.

[5] = system: Murine splenocytes (Balb/c); assay: B cell proliferation in response to cell surface IgM stimulation; format: cell-based; conditions: Mus musculus, Splenocyte; stimulated B cell proliferation; read-out: Mouse BCR Stim (EC50)
Description: In the above experiment, the B cells were stimulated using PANSORBIN®. The effect of D-000 on B cell proliferation response when they were stimulated through their cell surface IgM using anti-IgM antibody also was measured. Murine splenocytes (Balb/c) were plated into 96-well microtiter plates at 2×10^5 cells per well in 10% FBS/RPMI. Appropriate dilutions of test inhibitor in complete medium were added to the cells and the plates were incubated for 30-60 minutes prior to the addition of stimulus. Following the preincubation with test inhibitor an F(ab′)2 preparation of goat antibody specific for the μ-chain of mouse IgM was added to the wells at a final concentration of 25 μg/mL. The plates were incubated at 37° C. for 3 days and 1 μCi of [^3H]-thymidine was added to each well for the final four hours of culture. The plates were harvested onto fiber filters washed and the incorporation of radiolabel was determined using a beta counter (Matrix 96, Packard Instrument Co., Downers Grove, Ill.) and expressed as counts per minute (CPM).
(§2) Using the methods described in Examples 3-5, above, compounds of the invention were tested for inhibitory activity and potency in assays of stimulated B and T cell proliferation, neutrophil (PMN) migration, and neutrophil (PMN) elastase release. In Table 4, the values shown are effective concentrations of the compound (EC50; μM). Where no value is given, no assay was performed.

PI3Kδ [6] = target: T4, PI3Kδ (Homo sapiens, UniProt O00329, S253N); assay: Biochemical assay using 200 μM ATP, Delta;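 further: radiometric filter-binding assay: PI3Kδ transfers ³²P from γ-[³²P]ATP onto PIP2/PS liposomes, counted by scintillation, enzyme-only wells as positive control, no-enzyme wells as background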
T4 sequence (O00329 whole entry S253N): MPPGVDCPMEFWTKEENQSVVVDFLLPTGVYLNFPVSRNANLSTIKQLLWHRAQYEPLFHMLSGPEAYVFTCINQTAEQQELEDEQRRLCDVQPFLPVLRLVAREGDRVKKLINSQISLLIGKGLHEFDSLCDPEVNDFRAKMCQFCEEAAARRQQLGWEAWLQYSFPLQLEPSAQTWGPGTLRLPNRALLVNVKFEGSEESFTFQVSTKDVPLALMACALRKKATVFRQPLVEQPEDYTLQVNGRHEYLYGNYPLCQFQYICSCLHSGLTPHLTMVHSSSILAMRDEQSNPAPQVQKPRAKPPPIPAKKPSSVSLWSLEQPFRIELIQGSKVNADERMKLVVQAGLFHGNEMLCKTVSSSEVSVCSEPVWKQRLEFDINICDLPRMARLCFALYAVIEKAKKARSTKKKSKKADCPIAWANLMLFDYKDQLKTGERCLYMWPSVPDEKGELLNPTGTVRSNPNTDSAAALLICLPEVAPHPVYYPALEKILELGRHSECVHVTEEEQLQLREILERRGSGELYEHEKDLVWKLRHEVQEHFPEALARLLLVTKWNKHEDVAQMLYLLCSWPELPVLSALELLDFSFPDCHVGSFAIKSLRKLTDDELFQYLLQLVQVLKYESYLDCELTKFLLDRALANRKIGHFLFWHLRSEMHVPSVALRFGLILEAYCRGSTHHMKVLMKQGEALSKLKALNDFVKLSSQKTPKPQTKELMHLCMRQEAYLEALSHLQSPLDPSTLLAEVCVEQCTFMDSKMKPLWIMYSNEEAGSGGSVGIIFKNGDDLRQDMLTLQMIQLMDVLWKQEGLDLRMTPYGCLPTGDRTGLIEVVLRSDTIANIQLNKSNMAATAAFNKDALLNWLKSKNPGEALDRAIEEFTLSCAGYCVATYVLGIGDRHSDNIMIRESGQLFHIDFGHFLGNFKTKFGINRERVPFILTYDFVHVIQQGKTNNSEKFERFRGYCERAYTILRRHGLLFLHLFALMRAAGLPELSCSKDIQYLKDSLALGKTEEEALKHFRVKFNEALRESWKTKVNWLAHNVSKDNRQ
T4 sequence (P27986 whole entry partner): as the sequence (P27986 whole entry partner) above
Description: as §3, §4, §5, §6, §7, §8

PI3Kδ [7] = target: T4, PI3Kδ; assay: Biochemical assay of PI3K potency and selectivity using 20 μM ATP, Delta; parameters: His tag (pFastbac HTb vector) (N); FLAG; made in house; host or cells: Sf21 insect cells (baculovirus); conditions: 20 μM ATP; read-out: Delta IC50
Excerpt: as §1

human neutrophils = assay: Elastase exocytosis from neutrophils (fMLP-induced); format: cell-based; conditions: neutrophil (PMN) elastase release
Description: Aliquots (8 mL) of heparinized blood from healthy volunteers were layered on 3 mL cushions of 7.3% FICOLL® (Sigma, St. Louis, Mo.) and 15.4% HYPAQUE® (Sigma) and centrifuged at 900 rpm for 30 min at room temperature in a table top centrifuge (Beckman). The neutrophil-rich band just above the FICOLL®-HYPAQUE® cushion was collected and washed with Hanks' balanced salt solution (HBSS) containing 0.1% gelatin. Residual erythrocytes were removed by hypotonic lysis with 0.2% NaCl. The neutrophil preparation was washed twice with HBSS containing 0.1% gelatin and used immediately.
In addition to superoxide generation, activated neutrophils also respond by releasing several proteases that are responsible for the destruction of tissues and cartilage during inflammation. As an indication of protease release, the effect of D-000 on elastase exocytosis was measured. Elastase exocytosis was quantitated by modification of the procedure described by Ossanna et al. (J Clin Invest, 77:1939-1951 (1986)), as follows. Purified human neutrophils (0.2×10^6) (treated with either DMSO or a serial dilution of D-000 in DMSO) were stimulated with fMLP in PBS containing 0.01 mg/mL cytochalasin B, 1.0 μM sodium azide (NaN3), 5 μg/mL L-methionine and 1 μM fMLP for 90 min at 37° C. in a 96-well plate. At the end of the incubation period, the plate was centrifuged for 5 min at 1000 rpm, and 90 μL of the supernatant was transferred to 10 μL of 10 mM solution of an elastase substrate peptide, MeO-suc-Ala-Ala-Pro-Val-pNA, wherein MeO-suc=methoxy-succinyl; pNA=p-nitroanilide (Calbiochem, San Diego, Calif.). Absorbance at 410 nm was monitored for 2 hr in a 96-well plate reader. To measure the relative amounts of elastase excytosed, all absorbance values were normalized to the values without any inhibitor. […] Inhibition was half-maximal at a concentration of about 2-3 μM D-000.
as §2

Cc1cccc2nc(CSc3ncnc4[nH]cnc34)n(-c3c(Cl)cccc3Cl)c(=O)c12 [Compound D-034, 3-(2,6-dichlorophenyl)-5-methyl-2-(9H-purin-6-ylsulfanylmethyl)-3H-quinazolin-4-one]
Alpha/Delta Ratio (PI3Kα [1]): 131 | IC50 (PI3Kα [1]): 19000 nM | Beta/Delta Ratio (PI3Kβ [2]): 74 | IC50 (PI3Kβ [2]): 11000 nM | Alpha/Delta Ratio (PI3Kα [3]): 153 | Beta/Delta Ratio (PI3Kβ [4]): 85 | IC50 (PI3Kβ [4]): 103000 ± 4000 nM | Gamma/Delta Ratio (PI3Kγ): 28 | IC50 (PI3Kγ): 34000 ± 1000 nM | EC50 [5]: 600 ± 400 nM | IC50 (PI3Kδ [6]): 1200 ± 300 nM | IC50 (PI3Kδ [7]): 150 nM

O=c1c2cc(F)c(F)cc2nc(CSc2ncnc3[nH]cnc23)n1-c1ccccc1Cl [Compound D-027, 3-(2-Chlorophenyl)-6,7-difluoro-2-(9H-purin-6-ylsulfanylmethyl)-3H-quinazolin-4-one]
Alpha/Delta Ratio (PI3Kα [1]): >169 | remaining activity at 100 µM (PI3Kα [1]): 59% | Beta/Delta Ratio (PI3Kβ [2]): 97 | IC50 (PI3Kβ [2]): 58000 nM | Alpha/Delta Ratio (PI3Kα [3]): 37 | Beta/Delta Ratio (PI3Kβ [4]): 26 | IC50 (PI3Kβ [4]): 110000 nM | Gamma/Delta Ratio (PI3Kγ): 15 | IC50 (PI3Kγ): 60000 nM | EC50 (human neutrophils): 2000 nM | EC50 [5]: > 2000 nM | melting point: 207.8 °C | IC50 (PI3Kδ [6]): 4000 nM | IC50 (PI3Kδ [7]): 600 nM

CCOC(=O)Cn1c(CSc2ncnc3[nH]cnc23)nc2cccc(F)c2c1=O [Compound D-045, [5-fluoro-4-oxo-2-(9H-purin-6-ylsulfanylmethyl)-4H-quinazolin-3-yl]acetic acid ethyl ester]
Alpha/Delta Ratio (PI3Kα [1]): >13 | remaining activity at 100 µM (PI3Kα [1]): 98% | Beta/Delta Ratio (PI3Kβ [2]): >13 | remaining activity at 100 µM (PI3Kβ [2]): 74% | EC50 (human neutrophils): 9000 nM | IC50 (PI3Kδ [7]): 7600 nM

O=c1c2ccccc2nc(CSc2ncnc3[nH]cnc23)n1-c1ccccc1 [Compound D-121, 3-phenyl-2-(9H-purin-6-ylsulfanylmethyl)-3H-quinazolin-4-one]
Alpha/Delta Ratio (PI3Kα [1]): >211 | remaining activity at 100 µM (PI3Kα [1]): 69% | Beta/Delta Ratio (PI3Kβ [2]): >211 | remaining activity at 100 µM (PI3Kβ [2]): 70% | Alpha/Delta Ratio (PI3Kα [3]): 158 | Beta/Delta Ratio (PI3Kβ [4]): 138 | Gamma/Delta Ratio (PI3Kγ): 136 | EC50 [5]: 1400 nM | IC50 (PI3Kδ [6]): 900 nM | IC50 (PI3Kδ [7]): 480 nM

Cc1cccc2nc(CSc3ncnc4[nH]cnc34)n(-c3ccccc3F)c(=O)c12 [Compound D-031, 3-(2-Fluorophenyl)-5-methyl-2-(9H-purin-6-ylsulfanylmethyl)-3H-quinazolin-4-one]
Alpha/Delta Ratio (PI3Kα [1]): >833 | IC50 (PI3Kα [1]): 74000 nM | Beta/Delta Ratio (PI3Kβ [2]): 83 | IC50 (PI3Kβ [2]): 10000 nM | Alpha/Delta Ratio (PI3Kα [3]): 903 | Beta/Delta Ratio (PI3Kβ [4]): 707 | IC50 (PI3Kβ [4]): 137000 ± 23000 nM | Gamma/Delta Ratio (PI3Kγ): 802 | IC50 (PI3Kγ): 155000 ± 60000 nM | EC50 (human neutrophils): 700 ± 100 nM | EC50 [5]: 200 ± 100 nM | melting point: 151.9 to 152.2 °C | IC50 (PI3Kδ [6]): 200 ± 10 nM | IC50 (PI3Kδ [7]): 120 nM

O=c1c2cc(O)ccc2nc(CSc2ncnc3[nH]cnc23)n1-c1ccccc1Cl [Compound D-024, 3-(2-Chlorophenyl)-6-hydroxy-2-(9H-purin-6-ylsulfanylmethyl)-3H-quinazolin-4-one]
Alpha/Delta Ratio (PI3Kα [1]): 38 | IC50 (PI3Kα [1]): 100000 nM | Beta/Delta Ratio (PI3Kβ [2]): >38 | remaining activity at 100 µM (PI3Kβ [2]): 76% | EC50 (human neutrophils): 2900 nM | melting point: 186 to 214 °C (dec.) | IC50 (PI3Kδ [7]): 2600 nM

Nc1ncnc2c1ncn2Cc1nc2cccc(Cl)c2c(=O)n1-c1ccccc1F [Compound D-012, 2-(6-Aminopurin-9-ylmethyl)-5-chloro-3-(2-fluorophenyl)-3H-quinazolin-4-one]
Alpha/Delta Ratio (PI3Kα [1]): >588 | remaining activity at 100 µM (PI3Kα [1]): 69% | Beta/Delta Ratio (PI3Kβ [2]): 65 | IC50 (PI3Kβ [2]): 11000 nM | Alpha/Delta Ratio (PI3Kα [3]): 107 | Beta/Delta Ratio (PI3Kβ [4]): 83 | IC50 (PI3Kβ [4]): 108000 ± 4000 nM | Gamma/Delta Ratio (PI3Kγ): 38 | EC50 (human neutrophils): 300 nM | EC50 [5]: 300 ± 200 nM | melting point: 295.6 to 295.8 °C (dec.) | IC50 (PI3Kδ [6]): 1300 ± 400 nM | IC50 (PI3Kδ [7]): 170 nM
